Source: publication PMC9890698 (BMC Biology, 2023)
“And” between values parts separate entries of the source, which are not always exact repeats. Identical values can stand only once.

Target: T1, Human P2Y1-R (Homo sapiens, UniProt P47900)
T1 construct: expressed in transfected cells; host or cells: HEK293T/17
Experiment: Gαq protein activation BRET2 assay (Gαq-RLuc8/GFP2-Gγ2/Gβ1) in HEK293T cells expressing P2Y1-R
Assay type: cell-based
Design: ADP-modulated BRET / MRS2179-modulated BRET: unit not given here
Conditions: for G protein signaling, Ligand-modulated BRET (% of maximum MRS2179 mean value): Figure 4a, individual replicates; for EC50 / pEC50 ± s.e.m. / Emax ± s.e.m.: G protein signaling, Fig. 4a; for Emax ± s.e.m.: normalized to the mean value of maximal MRS2179 response, in %; for Behaviour on P2Y1-R-dependent constitutive Gαq protein activation: HEK293T cells
Text: As previously described, using a BRET^2 (bioluminescence resonance energy transfer)-based assay, we directly monitored the basal Gαq protein activation by measuring the interaction between Gαq and Gγ2 subunits of the Gαqβ1γ2 heterotrimer complex. Indeed, this assay is based on the non-radiative transfer between the Renilla reniformis luciferase (RLuc8) energy donor fused to the Gαq protein subunit and the fluorescent GFP2 energy acceptor fused to Gγ2 protein subunit (Fig. 1a). […] By contrast, ligand-independent constitutive receptor activation or agonist-induced receptor activation will promote Gαq/Gγ2 subunit dissociation, thereby leading to a decrease of the basal BRET signal (Fig. 1a). […] To preclude any P2Y1-R activation by a passive release of ADP by HEK293T cells, we performed similar experiments in the presence of high concentration of apyrase (0.2U/mL) to degrade any trace of ADP in the medium (Additional File 2: Fig. S2a). Under these conditions, P2Y1-R expression still induces a marked and significant decrease of the basal BRET signal compared to control cells (pcDNA3.1), thereby supporting a P2Y1-R-dependent constitutive activation of Gαq protein. […] Of note, because P2Y1-R and AT1-R were respectively Myc- and HA-tagged and were thus detected using different primary antibodies, their expression at the cell surface cannot be compared between each other’s.
Human P2Y1-R (NCBI Reference Sequence: NM_002563.2) and P2Y12-R (NCBI Reference Sequence: NM_022788.3) were fused to double Myc epitope and rat AT1-R (NCBI Reference Sequence: NM_030985.4) to HA tag in N-terminus extracellular region. Alternatively, receptors were also fused to Venus tag in C-terminus intracellular region. Plasmids encoding Gαq-RLuc8, GFP2-Gγ2 and untagged Gβ1 were previously described. ADP was purchased from Sigma-Aldrich/Merck (Darmstadt, Germany). […] The Gq inhibitor (FR900359) was kindly supplied by Evi Kostenis (University of Bonn. Germany).
G protein activation and β-arrestin 2 recruitment were performed as previously described. Briefly, vectors encoding receptors, Gαq-RLuc8, GFP2-Gγ2, Gβ1, or β-arrestin 2 were transiently cotransfected into HEK293T/17 cells as indicated in the figure legends. Forty-eight hours after transfection, cells were washed and resuspended in PBS containing 0.1% (w/v) glucose at room temperature and then distributed (80 μg proteins/well) in a 96-well microplate (PerkinElmer). For G protein activation experiments (BRET^2), cells were incubated in the absence (basal BRET signal) or in the presence of ligand for 1 minute. BRET signal between RLuc8 and GFP2 was measured after addition of the luciferase substrate coelenterazine 400a (5 μM). For β-arrestin 2 recruitment (BRET^1), cells were stimulated with ligands for 5 or 15 min. BRET signal was recorded after incubation with coelenterazine h (5 μM) for 8 min. For kinetics studies, BRET signal between RLuc and Venus was recorded at 20-s intervals at basal state for the 2 first minutes and then for 5 min after ligand injection. For saturation curves (BRET^1), the expression level of Venus- or RLuc-tagged protein was determined by direct measurement of total fluorescence and luminescence respectively. Total fluorescence was first measured with an excitation filter at 485 nm and an emission filter at 520 nm. Then, the same sample was incubated for 8 minutes with 5 μM coelenterazine h and the total luminescence was measured. BRET^2 and BRET^1 readings were collected using a modified Infinite F500 (Tecan Group Ltd). The BRET^2 signal was calculated by the ratio of emission of GFP2 (510–540 nm) to RLuc8 (370–450 nm) and the BRET^1 signal by the ratio of emission of Venus (520–570 nm) to RLuc (370–480 nm). […]

T1 sequence (P47900 whole entry): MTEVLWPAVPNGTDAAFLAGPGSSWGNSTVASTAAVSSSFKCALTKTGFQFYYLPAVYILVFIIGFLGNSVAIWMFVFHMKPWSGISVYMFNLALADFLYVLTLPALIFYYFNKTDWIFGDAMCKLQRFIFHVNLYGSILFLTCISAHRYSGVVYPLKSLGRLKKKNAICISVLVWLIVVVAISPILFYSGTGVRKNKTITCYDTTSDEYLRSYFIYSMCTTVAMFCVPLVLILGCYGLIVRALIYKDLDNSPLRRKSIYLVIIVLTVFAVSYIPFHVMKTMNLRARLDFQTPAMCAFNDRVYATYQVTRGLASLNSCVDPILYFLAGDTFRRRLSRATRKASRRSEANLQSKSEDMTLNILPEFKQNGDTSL

Structure (SMILES) | ADP-induced change of Gαq/Gγ2 BRET signal (ADP 10 μM, 1 min, result in words) | ADP-modulated BRET (P2Y1-R, ADP 10 μM, 1 min, individual experiments) | G protein signaling, Ligand-modulated BRET (% of maximum MRS2179 mean value) ([Ligand] 1.00E-04 M) | G protein signaling, Ligand-modulated BRET (% of maximum MRS2179 mean value) ([Ligand] 1.00E-05 M) | G protein signaling, Ligand-modulated BRET (% of maximum MRS2179 mean value) ([Ligand] 1.00E-06 M) | G protein signaling, Ligand-modulated BRET (% of maximum MRS2179 mean value) ([Ligand] 1.00E-07 M) | G protein signaling, Ligand-modulated BRET (% of maximum MRS2179 mean value) ([Ligand] 1.00E-08 M) | G protein signaling, Ligand-modulated BRET (% of maximum MRS2179 mean value) ([Ligand] 1.00E-09 M) | G protein signaling, Ligand-modulated BRET (% of maximum MRS2179 mean value) ([Ligand] 1.00E-10 M) | EC50 (1 min) [µM] | pEC50 ± s.e.m. (1 min) | Emax ± s.e.m. (1 min) | Behaviour on P2Y1-R-dependent constitutive Gαq protein activation (result in words)
Nc1ncnc2c1ncn2[C@@H]1O[C@H](COP(=O)(O)OP(=O)(O)O)[C@@H](O)[C@H]1O [ADP, adenosine diphosphate] | significant but moderate decrease of the BRET signal | -0.02511 and -0.01906 and -0.00821 and -0.04045 and -0.02327 and -0.02843 | – | – | – | – | – | – | – | – | – | – | –
CNc1nc(I)nc2c1ncn2[C@H]1C[C@H](OP(=O)(O)O)[C@]2(COP(=O)(O)O)C[C@H]12 [MRS2500, 2-iodo-N6-methyl-(N)-methanocarba-2′-deoxyadenosine-3′,5′-bisphosphate] | – | – | 155.404 % of maximum MRS2179 mean value and 138.849 % of maximum MRS2179 mean value and 107.119 % of maximum MRS2179 mean value and 132.185 % of maximum MRS2179 mean value and 125.72 % of maximum MRS2179 mean value and 141.754 % of maximum MRS2179 mean value | 122.914 % of maximum MRS2179 mean value and 111.352 % of maximum MRS2179 mean value and 93.6281 % of maximum MRS2179 mean value and 124.36 % of maximum MRS2179 mean value and 97.7584 % of maximum MRS2179 mean value and 107.998 % of maximum MRS2179 mean value | 73.5711 % of maximum MRS2179 mean value and 80.459 % of maximum MRS2179 mean value and 53.1675 % of maximum MRS2179 mean value and 68.2708 % of maximum MRS2179 mean value and 52.8113 % of maximum MRS2179 mean value and 71.2103 % of maximum MRS2179 mean value | 18.6255 % of maximum MRS2179 mean value and 25.6955 % of maximum MRS2179 mean value and 14.1554 % of maximum MRS2179 mean value and 20.945 % of maximum MRS2179 mean value and 1.4 % of maximum MRS2179 mean value and 18.5955 % of maximum MRS2179 mean value | 1.081 % of maximum MRS2179 mean value and -4.947 % of maximum MRS2179 mean value and -10.1975 % of maximum MRS2179 mean value and -7.982 % of maximum MRS2179 mean value and -25.6775 % of maximum MRS2179 mean value and 3.691 % of maximum MRS2179 mean value | -4.558 % of maximum MRS2179 mean value and -14.6104 % of maximum MRS2179 mean value and -16.9372 % of maximum MRS2179 mean value and -9.323 % of maximum MRS2179 mean value and -17.5921 % of maximum MRS2179 mean value and 4.08 % of maximum MRS2179 mean value | -10.8256 % of maximum MRS2179 mean value and -10.2571 % of maximum MRS2179 mean value and -9.064 % of maximum MRS2179 mean value and -13.8903 % of maximum MRS2179 mean value and -18.6423 % of maximum MRS2179 mean value and -6.511 % of maximum MRS2179 mean value | 0.772 | 6.113 ± 0.07237 | 127.2 ± 3.892 | behaved as inverse agonists
CNc1nc(Cl)nc2c1ncn2[C@H]1CC(OP(=O)(O)O)[C@]2(COP(=O)(O)O)C[C@H]12 (stereo in doubt) [MRS2279] | – | – | 129.138 % of maximum MRS2179 mean value and 120.304 % of maximum MRS2179 mean value and 127.2 % of maximum MRS2179 mean value and 111.359 % of maximum MRS2179 mean value and 120.336 % of maximum MRS2179 mean value and 114.718 % of maximum MRS2179 mean value | 65.0429 % of maximum MRS2179 mean value and 66.0702 % of maximum MRS2179 mean value and 71.1916 % of maximum MRS2179 mean value and 1.991 % of maximum MRS2179 mean value and 5.227 % of maximum MRS2179 mean value and 4.981 % of maximum MRS2179 mean value | 0.8906 % of maximum MRS2179 mean value and 4.044 % of maximum MRS2179 mean value and 23.8581 % of maximum MRS2179 mean value and -4.504 % of maximum MRS2179 mean value and -0.009097 % of maximum MRS2179 mean value and -7.368 % of maximum MRS2179 mean value | -9.195 % of maximum MRS2179 mean value and -17.2152 % of maximum MRS2179 mean value and -1.434 % of maximum MRS2179 mean value and -4.1872 % of maximum MRS2179 mean value and -11.6872 % of maximum MRS2179 mean value and -13.2576 % of maximum MRS2179 mean value | -19.0202 % of maximum MRS2179 mean value and -26.9343 % of maximum MRS2179 mean value and -6.222 % of maximum MRS2179 mean value and 4.642 % of maximum MRS2179 mean value and -7.159 % of maximum MRS2179 mean value and -5.465 % of maximum MRS2179 mean value | -11.1827 % of maximum MRS2179 mean value and -20.1662 % of maximum MRS2179 mean value and -5.932 % of maximum MRS2179 mean value and 1.161 % of maximum MRS2179 mean value and -4.3372 % of maximum MRS2179 mean value and -8.802 % of maximum MRS2179 mean value | -9.413 % of maximum MRS2179 mean value and -16.1844 % of maximum MRS2179 mean value and -3.46 % of maximum MRS2179 mean value and -2.408 % of maximum MRS2179 mean value and -4.624 % of maximum MRS2179 mean value and -8.503 % of maximum MRS2179 mean value | 26.4 | 4.579 ± 0.1247 | 154.3 ± 13.86 | behaved as inverse agonists
